Laboratory results taken from patent US20260124197A1, “NOVEL HETEROBICYCLIC COMPOUND FOR INHIBITING YAP-TEAD INTERACTION AND PHARMACEUTICAL COMPOSITION COMPRISING SAME” (priority 2022, published 2026).

Experiments:
[1] = tested on: TEAD transcriptional activity; experiment: TEAD reporter activity inhibition test (luciferase reporter, MCF7 cell line); format: cell-based; conditions: Homo sapiens; TEAD (GTIIC) firefly luciferase reporter MCF7 cell line, 24 hours, ONE-Glo luminescence
Method: Experimental Example 1: TEAD Reporter Activity Inhibition Test
The ability of the synthetic compounds to inhibit TEAD target gene transcription was measured. This evaluation method measures the transcriptional activity of TEAD by measuring the luciferase luminescence expressed when TEAD binds to a target gene and activates transcription using the MCF7 cell line (BPS Bioscience, Inc., USA) in which a firefly luciferase reporter gene has been introduced into the specific binding structure of TEAD, GTIIC (5′-ACATTCCA-3′). Cell lines were cultured in MEM medium added with 10% FBS, 1% Penicillin/Streptomycin, 1% non-essential amino acids, 10 μg/ml insulin, and 400 μg/ml Geneticin, and Geneticin was excluded when testing for inhibition of TEAD reporter activity. […] cells/100 μl were dispensed into a white 96-well plate and cultured for 6 hours. 50 μl of the test compound diluted to 3× concentration was mixed into each well. After 24 hours of cell culture, the luciferase signal was measured by luminescence using the ONE-Glo luciferase assay system (Promega, E6120) following the manufacturer's protocol. The 50% inhibition value (IC50) for TEAD transcriptional activity was calculated using GraphPad Prism 9.
If the IC50 value is less than 100 nM, it is indicated as A, if it is at least 100 nM but less than 500 nM, it is indicated as B, and if it is 500 nM or more, it is indicated as C.

[2] = tested on: NCI-H226 cells; experiment: Cell growth inhibition test (SRB); format: cell-based; conditions: Homo sapiens, 144 h; NCI-H226 mesothelioma cell line lacking the NF2 gene, cultured for 6 days, SRB test method
Method: Experimental Example 2: Cell Growth Inhibition Test
The synthetic compound was confirmed to inhibit cell growth in NCI-H226 cells. NCI-H226 is a mesothelioma cancer cell line lacking the NF2 gene, and was cultured in RPMI 1640 medium supplemented added with 10% FBS and 1% Penicillin/Streptomycin. Cultured cells were dispensed into 96-well plates at 0.7×10^3 cells/100 μl and cultured for 24 hours, then 100 μl of the test compound diluted to a 2× concentration were mixed into each well and cultured for 6 days. The SRB test method was used to measure cell growth inhibition, and the 50% inhibition value (GI50) for cell growth by the compound was calculated using GraphPad Prism 9.
If the GI50 value is less than 100 nM, it is indicated as A, and if it is 100 nM or more, it is indicated as B.

Compound | IC50 [1] [nM] | GI50 [2] [nM]
CNS(=O)(=O)c1ccc2c(c1)c(-c1ncccc1F)cn2-c1ccc(C(F)(F)F)cc1 [Example 20, 3-(3-fluoropyridin-2-yl)-N-methyl-1-(4-(trifluoromethyl)phenyl)-1H-indole-5-sulfonamide] | < 100 | < 100
CNS(=O)(=O)c1ccc2c(c1)c(-c1cn(C3CCC3)cn1)cn2-c1ccc(C(F)(F)F)cc1 [Example 16] | < 100 | < 100
CNS(=O)(=O)c1ccc2c(c1)c(-c1ccccc1F)cn2-c1ccc(C(F)(F)F)cc1 [Example 13, 3-(2-fluorophenyl)-N-methyl-1-(4-(trifluoromethyl)phenyl)-1H-indole-5-sulfonamide] | < 100 | ≥ 100
CNS(=O)(=O)c1ccc2c(c1)c(-c1cn(C3COC3)cn1)cn2-c1ccc(C(F)(F)F)cc1 [Example 35, N-methyl-3-(1-(oxetan-3-yl)-1H-imidazol-4-yl)-1-(4-(trifluoromethyl)phenyl)-1H-indole-5-sulfonamide] | 100 to 500 | 
CNS(=O)(=O)c1ccc2c(c1)c(-c1cn(C)cn1)cn2-c1ccc(C(F)(F)F)cn1 [Example 12, N-methyl-3-(1-methyl-1H-imidazol-4-yl)-1-(5-(trifluoromethyl)pyridin-2-yl)-1H-indole-5-sulfonamide] | 100 to 500 | 
CNS(=O)(=O)c1ccc2c(c1)c(-c1ccc(C(F)(F)F)o1)cn2-c1ccc(C(F)(F)F)cc1 [Example 34, N-methyl-3-(5-(trifluoromethyl)furan-2-yl)-1-(4-(trifluoromethyl)phenyl)-1H-indole-5-sulfonamide] | 100 to 500 | 
CNS(=O)(=O)c1ccc2c(c1)c(-c1cn(C)cn1)cn2-c1ccc(C)cc1 [Example 39, N-methyl-3-(1-methyl-1H-imidazol-4-yl)-1-(p-tolyl)-1H-indole-5-sulfonamide] | 100 to 500 | 
CNS(=O)(=O)c1ccc2c(c1)c(-c1cn(C(C)C)cn1)cn2-c1ccc(C(F)(F)F)cc1 [Example 6, 3-(1-isopropyl-1H-imidazol-4-yl)-N-methyl-1-(4-(trifluoromethyl)phenyl)-1H-indole-5-sulfonamide] | ≥ 500 | 
CNS(=O)(=O)c1ccc2c(c1)c(-c1cn(C)cn1)cn2-c1ccc(C(F)(F)F)c(Cl)c1 [Example 27, 1-(3-chloro-4-(trifluoromethyl)phenyl)-N-methyl-3-(1-methyl-1H-imidazol-4-yl)-1H-indole-5-sulfonamide] | < 100 | 

Other lines, results leading:

IC50 [1] [nM] | GI50 [2] [nM] | Compound
< 100 | < 100 | CNS(=O)(=O)c1ccc2c(c1)c(-c1ccc(C)o1)cn2-c1ccc(C(F)(F)F)cc1 [Example 10, N-methyl-3-(5-methylfuran-2-yl)-1-(4-(trifluoromethyl)phenyl)-1H-indole-5-sulfonamide]
< 100 | < 100 | CNS(=O)(=O)c1ccc2c(c1)c(-c1cnc(C)o1)cn2-c1ccc(C(F)(F)F)cc1 [Example 32, N-methyl-3-(2-methyloxazol-5-yl)-1-(4-(trifluoromethyl)phenyl)-1H-indole-5-sulfonamide]
< 100 | < 100 | CNS(=O)(=O)c1ccc2c(c1)c(-c1ccccn1)cn2-c1ccc(C(F)(F)F)cc1 [Example 8, N-methyl-3-(pyridin-2-yl)-1-(4-(trifluoromethyl)phenyl)-1H-indole-5-sulfonamide]
< 100 | < 100 | CNS(=O)(=O)c1ccc2c(c1)c(-c1cn(C3CC3)cn1)cn2-c1ccc(C(F)(F)F)cc1 [Example 28, 3-(1-cyclopropyl-1H-imidazol-4-yl)-N-methyl-1-(4-(trifluoromethyl)phenyl)-1H-indole-5-sulfonamide]
< 100 | < 100 | CNS(=O)(=O)c1ccc2c(c1)c(-c1cn(C3CC3)cn1)nn2-c1ccc(C(F)(F)F)cc1 [Example 44, 3-(1-cyclopropyl-1H-imidazol-4-yl)-N-methyl-1-(4-(trifluoromethyl)phenyl)-1H-indazol-5-sulfonamide]
